Laboratory results as given in patent US5420282A, “Thiopyrano(2,3,4-c,d) indolyloxime ether alkylcarboxylates” (Abbott Laboratories, priority 1994, dated 1995).

System: calcium ionophore-induced LTB4 biosynthesis
Assay: Inhibition of calcium ionophore-induced LTB4 biosynthesis in human whole blood
Type: cell-based
Details: human heparinized whole blood; 15 min preincubation at 37° C.; A23187 8.3 μM, 30 minutes; LTB4 by radioimmunoassay; read-out: IC50, inhibition of leukotriene biosynthesis in human whole blood
Experimental: Inhibition of leukotriene biosynthesis was evaluated in an assay, involving calcium ionophore-induced LTB4 biosynthesis expressed human whole blood. Human heparinized whole blood was proincubated with test compounds or vehicle for 15 min at 37° C. followed by calcium ionophore A23187 challenge (final concentration of 8.3 μM) and the reaction terminated after 30 minutes by adding two volumes of methanol containing prostaglandin B2 as an internal recovery standard. The methanol extract was analyzed for LTB4 using a commercially available radioimmunoassay.

Question: With `CC1Cc2c(OCc3ccc4ccccc4n3)ccc3c2c(c(CC(C)(C)C=NOCC(=O)O)n3Cc2ccc(Cl)cc2)S1` (centres unmarked) [Example 1, 3-[1-(4-chlorobenzyl)-4-methyl-6-(quinolin-2-ylmethoxy]-4,5-dihydro-1H-thiopyrano[2,3,4-c,d]indol-2-yl]-2,2dimethylpropionaldehyde oxime-O-acetic acid] as the compound, how does the IC50 read?
Answer: Its IC50 is 2700 nM.

Question: For `CC1Cc2c(OCc3ccc(-c4ccccc4)cn3)ccc3c2c(c(CC(C)(C)C=NOCC(=O)O)n3Cc2ccc(Cl)cc2)S1` (centres unmarked) [Example 2, 3-[1-(4-chlorobenzyl)-4-methyl-6-(5-phenylpyridin-2-ylmethoxy]-4,5-dihydro-1H-thiopyrano[2,3,4-c,d]indol-2-yl]-2,2-dimethylpropionaldehyde oxime-O-acetic acid], which IC50 is on record?
Answer: The IC50 was 400 nM.
